According to patent US20230295157A1, “3-(1H-IMIDAZOL-2-YL)-2,3,8,8A-TETRAHYDROINDOLIZIN-5(1H)-ONE DERIVATIVES USEFUL AS FACTOR XIA INHIBITORS” (JANSSEN PHARMACEUTICA NV, priority 2020, published 2023):
Read-outs that look alike come from different tables or passages of the source.

Columns and labels:
Factor XIa = Factor XIa (Homo sapiens (Human), UniProt P03951); experiment: Factor XIa inhibition assay (FLINT) utilizing a fluorophore-quencher pair peptide substrate; type: biochemical; settings: 30 min preincubation, kinetic reads over 30 min, read-out: FXIa Kin Inh IC50
How it was run: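 FXIa ([…]) preincubated 30 min with compound (11-point 3-fold dilution, top 100 nM, 2% DMSO), then 15 μM quenched FXI Arg146-based peptide added; Tris pH 7.5, CaCl2, BSA, CHAPS. Fluorescence 485/520 nm read kinetically every 5 min over 30 min at RT; IC50 by 4-parameter fit.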

human plasma kallikrein = human plasma kallikrein (Homo sapiens (Human), UniProt P03952); experiment: Kallikrein inhibition assay (FLINT) utilizing a quenched AMC peptide substrate; type: biochemical; settings: 30 min preincubation, kinetic reads over 30 min, Z-Gly-Pro-Arg-AMC substrate 50 μM; read-out: Kallikrein Kin Inh IC50
How it was run: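 Fluorogenic Z-Gly-Pro-Arg-AMC cleavage (50 μM substrate, 2 nM kallikrein, Tris pH 7.5, CaCl2, BSA, CHAPS, 2% DMSO) read kinetically at 340/440 nm for 30 min after 30-min compound pre-incubation. Compounds in 11-point 3-fold series from 1 μM; percent inhibition fitted to four-parameter equation for IC50.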

[1] = 5Fam-KLTRAETV-K5Tamra substrate 15 μM
[2] = 5Fam-[…]-K5Tamra substrate 15 μM

Chain of human plasma kallikrein (P03952 391-638): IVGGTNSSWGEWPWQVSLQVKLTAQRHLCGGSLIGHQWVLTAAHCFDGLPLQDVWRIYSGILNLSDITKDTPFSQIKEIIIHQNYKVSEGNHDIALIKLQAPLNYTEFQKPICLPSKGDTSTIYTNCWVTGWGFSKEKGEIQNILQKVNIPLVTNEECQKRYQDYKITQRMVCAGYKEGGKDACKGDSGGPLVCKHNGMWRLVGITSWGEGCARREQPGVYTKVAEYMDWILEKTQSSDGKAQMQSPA
Chain of human plasma kallikrein (P03952 20-390 partner): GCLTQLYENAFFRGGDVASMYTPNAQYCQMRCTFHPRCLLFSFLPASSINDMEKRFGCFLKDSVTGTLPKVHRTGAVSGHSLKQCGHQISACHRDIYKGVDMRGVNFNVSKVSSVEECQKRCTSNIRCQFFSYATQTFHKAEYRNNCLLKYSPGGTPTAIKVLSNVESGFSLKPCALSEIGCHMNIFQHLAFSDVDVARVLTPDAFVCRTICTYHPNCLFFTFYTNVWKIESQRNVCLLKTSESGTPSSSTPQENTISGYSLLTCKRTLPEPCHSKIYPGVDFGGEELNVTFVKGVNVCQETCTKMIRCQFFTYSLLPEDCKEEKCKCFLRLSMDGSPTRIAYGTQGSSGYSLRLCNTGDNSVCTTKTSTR
Chain of Factor XIa (P03951 388-625): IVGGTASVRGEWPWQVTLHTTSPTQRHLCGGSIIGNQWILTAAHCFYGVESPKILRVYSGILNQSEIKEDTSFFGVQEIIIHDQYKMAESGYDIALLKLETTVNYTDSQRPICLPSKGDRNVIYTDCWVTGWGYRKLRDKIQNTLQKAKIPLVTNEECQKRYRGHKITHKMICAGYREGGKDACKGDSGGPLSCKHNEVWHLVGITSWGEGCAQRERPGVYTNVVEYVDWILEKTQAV
Chain of Factor XIa (P03951 19-387 partner): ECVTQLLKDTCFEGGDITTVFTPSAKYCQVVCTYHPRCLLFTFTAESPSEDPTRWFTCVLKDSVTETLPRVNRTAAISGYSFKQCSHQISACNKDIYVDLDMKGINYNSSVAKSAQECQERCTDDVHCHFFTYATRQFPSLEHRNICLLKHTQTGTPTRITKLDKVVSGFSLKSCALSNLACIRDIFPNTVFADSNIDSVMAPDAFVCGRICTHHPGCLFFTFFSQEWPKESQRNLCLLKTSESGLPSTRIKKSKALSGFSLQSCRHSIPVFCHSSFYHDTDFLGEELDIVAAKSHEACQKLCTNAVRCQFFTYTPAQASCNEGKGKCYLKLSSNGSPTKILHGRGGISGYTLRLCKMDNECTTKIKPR

Structure (SMILES)	IC50 (Factor XIa; [1])	IC50 (human plasma kallikrein)	IC50 (Factor XIa; [2])
O=C1C=C(c2c(-n3cnnn3)ccc(Cl)c2F)C[C@H]2CC[C@@H](c3ncc(-c4cnc5[nH]ccc5c4)[nH]3)N12 [Example 24, (3S,8aR)-3-(5-(1H-pyrrolo[2,3-b]pyridin-5-yl)-1H-imidazol-2-yl)-7-(3-chloro-2-fluoro-6-(1H-tetrazol-1-yl)phenyl)-2,3,8,8a-tetrahydroindolizin-5(1H)-one]	74.4 nM	92 nM	–
CN(C)c1ccccc1-c1c[nH]c([C@@H]2CCC3CC(c4c(-n5cnnn5)ccc(Cl)c4F)=CC(=O)N32)n1 (stereo partly drawn) [Example 289, (3S)-7-(3-Chloro-2-fluoro-6-(1H-tetrazol-1-yl)phenyl)-3-(4-(2-(dimethylamino)phenyl)-1H-imidazol-2-yl)-2,3,8,8a-tetrahydroindolizin-5(1H)-one]	–	492 nM	> 200 nM
O=C1Cc2cc(-c3cnc([C@@H]4CCC5CC(c6c(-n7cnnn7)ccc(Cl)c6F)=CC(=O)N54)[nH]3)ccc2N1 (stereo partly drawn) [Example 314, 5-(2-((3S)-7-(3-Chloro-2-fluoro-6-(1H-tetrazol-1-yl)phenyl)-5-oxo-1,2,3,5,8,8a-hexahydroindolizin-3-yl)-1H-imidazol-5-yl)indolin-2-one]	1 nM	3.2 nM	–
C[C@@H]1C[C@@H](c2ncc(-c3ccc(N)nc3F)[nH]2)N2C(=O)C=C(c3c(-n4cnnn4)ccc(Cl)c3F)C[C@H]12 (single isomer, unassigned) [Example 345, (1*R,3S,8a*R)-3-(5-(6-Amino-2-fluoropyridin-3-yl)-1H-imidazol-2-yl)-7-(3-chloro-2-fluoro-6-(1H-tetrazol-1-yl)phenyl)-1-methyl-2,3,8,8a-tetrahydroindolizin-5(1H)-one]	2.6 nM	14.5 nM	–
CNc1n[nH]c2cc(-c3cnc([C@@H]4CCC5CC(c6c(-n7cnnn7)ccc(Cl)c6F)=CC(=O)N54)[nH]3)ccc12 (stereo partly drawn) [Example 258, (3S)-7-[3-Chloro-2-fluoro-6-(tetrazol-1-yl)phenyl]-3-[5-[3-(methylamino)-1H-indazol-6-yl]-1H-imidazol-2-yl]-2,3,8,8a-tetrahydro-1H-indolizin-5-one]	0.3 nM	0.8 nM	–
O=C(O)c1sc(-c2cnc([C@@H]3CC[C@@H]4CC(c5c(-n6cc(C(F)(F)F)nn6)ccc(Cl)c5F)=CC(=O)N43)[nH]2)cc1F (single isomer, unassigned) [Example 195, 5-(2-((3*S,8aR)-7-(3-chloro-2-fluoro-6-(4-(trifluoromethyl)-1H-1,2,3-triazol-1-yl)phenyl)-5-oxo-1,2,3,5,8,8a-hexahydroindolizin-3-yl)-1H-imidazol-yl)-3-fluorothiophene-2-carboxylic acid]	0.5 nM	22.1 nM	–
O=C(Nc1cnccc1-c1c[nH]c([C@@H]2CC[C@@H]3CC(c4c(-n5cnnn5)ccc(Cl)c4F)=CC(=O)N32)n1)C1CC1 (relative stereo) [Example 249, N-(4-(2-((3S,8a*R)-7-(3-Chloro-2-fluoro-6-(1H-tetrazol-1-yl)phenyl)-5-oxo-1,2,3,5,8,8a-hexahydroindolizin-3-yl)-1H-imidazol-4-yl)pyridin-3-yl)cyclopropanecarboxamide]	–	0.4 nM	0.2 nM
O=C1C=C(c2c(OC(F)F)ccc(Cl)c2F)C[C@H]2CC[C@@H](c3ncc(-c4ccnc(CO)c4F)[nH]3)N12 [Example 25, (3S,8aR)-7-(3-Chloro-6-(difluoromethoxy)-2-fluorophenyl)-3-(5-(3-fluoro-2-(hydroxymethyl)pyridin-4-yl)-1H-imidazol-2-yl)-2,3,8,8a-tetrahydroindolizin-5(1H)-one]	> 100 nM	480 nM	–
CC(=O)N[C@H](C)c1ccc(-c2[nH]c([C@@H]3CCC4CC(c5c(-n6cnnn6)ccc(Cl)c5F)=CC(=O)N43)nc2F)cc1 (stereo partly drawn) [Example 11, N-[(1R)-1-[4-[2-[(3S)-7-[3-Chloro-2-fluoro-6-(tetrazol-1-yl)phenyl]-5-oxo-2,3,8,8a-tetrahydro-1H-indolizin-3-yl]-4-fluoro-1H imidazol-5-yl]phenyl]ethyl]acetamide]	11.4 nM	30.5 nM	–
NC(=O)c1ccc(-c2cnc([C@H]3CC[C@@H]4CC(c5c(-n6cnnn6)ccc(Cl)c5F)=CC(=O)N43)[nH]2)cn1 (single isomer, unassigned) [Example 226]	10.2 nM	38.4 nM	–
CC1C[C@@H](c2ncc(-c3ccc(N)nc3Cl)[nH]2)N2C(=O)C=C(c3c(-n4cnnn4)ccc(Cl)c3F)CC12 (stereo partly drawn) [Example 347, (3S)-3-(5-(6-Amino-2-chloropyridin-3-yl)-1H-imidazol-2-yl)-7-(3-chloro-2-fluoro-6-(1H-tetrazol-1-yl)phenyl)-1-methyl-2,3,8,8a-tetrahydroindolizin-5(1H)-one]	0.6 nM	5.5 nM	–
O=C1C=C(c2c(-n3cnnn3)ccc(Cl)c2F)CC2CC[C@@H](c3nc(-c4ccnc(OC(F)F)c4)c(F)[nH]3)N12 (stereo in doubt) [Example 3, (S)-7-[3-Chloro-2-fluoro-6-(tetrazol-1-yl)phenyl]-3-[4-[2-(difluoromethoxy)-4-pyridyl]-5-fluoro-1H-imidazol-2-yl]-2,3,8,8a-tetrahydro-1H-indolizin-5-one]	–	5.4 nM	3.9 nM

Results, then the compound that gave them:

IC50 (Factor XIa; [1])	IC50 (human plasma kallikrein)	IC50 (Factor XIa; [2])	Structure (SMILES)
6.5 nM	33.9 nM	–	C[C@@H](O)c1nccc(-c2cnc([C@@H]3CC[C@@H]4CC(c5c(-n6cnnn6)ccc(Cl)c5F)=CC(=O)N43)[nH]2)c1F [Example 185, (3S,8aR)-7-(3-chloro-2-fluoro-6-(1H-tetrazol-1-yl)phenyl)-3-(5-(3-fluoro-2-((R)-1-hydroxyethyl)pyridin-4-yl)-1H-imidazol-2-yl)-2,3,8,8a-tetrahydroindolizin-5(1H)-one]
0.4 nM	1.3 nM	–	CCNc1nccc(-c2cnc([C@@H]3CC[C@@H]4CC(c5c(-n6cnnn6)ccc(Cl)c5F)=CC(=O)N43)[nH]2)c1F [Example 390, (3S,8aR)-7-(3-chloro-2-fluoro-6-(1H-tetrazol-1-yl)phenyl)-3-(5-(2-(ethylamino)-3-fluoropyridin-4-yl)-1H-imidazol-2-yl)-2,3,8,8a-tetrahydroindolizin-5(1H)-one]
4.8 nM	6.3 nM	–	CCN(CCO)c1nccc(-c2cnc([C@@H]3CC[C@@H]4CC(c5c(-n6cnnn6)ccc(Cl)c5F)=CC(=O)N43)[nH]2)c1F (single isomer, unassigned) [Example 136, (3S,8a*R)-7-(3-chloro-2-fluoro-6-(1H-tetrazol-1-yl)phenyl)-3-(5-(2-(ethyl(2-hydroxyethyl)amino)-3-fluoropyridin-4-yl)-1H-imidazol-2-yl)-2,3,8,8a-tetrahydroindolizin-5(1H)-one]
0.5 nM	8 nM	–	O=C1C=C(c2c(-n3cnnn3)ccc(Cl)c2F)C[C@H]2CC[C@@H](c3ncc(-c4c[nH]nc4Cl)[nH]3)N12 (single isomer, unassigned) [Example 224]
4.7 nM	21.1 nM	–	O=C1C=C(c2c(-n3cnnn3)ccc(Cl)c2F)C[C@H]2CC[C@@H](c3ncc(-c4ccc(CO)nc4F)[nH]3)N12 (single isomer, unassigned) [Example 235]
0.4 nM	1.1 nM	–	CNc1nccc(-c2cnc([C@@H]3CC[C@@H]4CC(c5c(-n6cnnn6)ccc(Cl)c5F)=CC(=O)N43)[nH]2)c1F [Example 134, (3S,8aR)-7-(3-chloro-2-fluoro-6-(1H-tetrazol-1-yl)phenyl)-3-(5-(3-fluoro-2-(methylamino)pyridin-4-yl)-1H-imidazol-2-yl)-2,3,8,8a-tetrahydroindolizin-5(1H)-one]
0.5 nM	1.9 nM	–	COCCNc1nccc(-c2cnc([C@@H]3CCC4CC(c5c(-n6cnnn6)ccc(Cl)c5F)=CC(=O)N43)[nH]2)c1F (stereo partly drawn) [Example 161, (3S)-7-(3-chloro-2-fluoro-6-(1H-tetrazol-1-yl)phenyl)-3-(5-(3-fluoro-2-((2-methoxyethyl)amino)pyridin-4-yl)-1H-imidazol-2-yl)-2,3,8,8a-tetrahydroindolizin-5(1H)-one]
1.5 nM	15.9 nM	–	O=C1C=C(c2c(-n3cnnn3)ccc(Cl)c2F)C[C@H]2CC[C@H](c3ncc(-c4c[nH]nc4C(F)(F)F)[nH]3)N12 (single isomer, unassigned) [Example 239, (3*R,8a*R)-7-(3-Chloro-2-fluoro-6-(1H-tetrazol-1-yl)phenyl)-3-(5-(3-(trifluoromethyl)-1H-pyrazol-4-yl)-1H-imidazol-2-yl)-2,3,8,8a-tetrahydroindolizin-5(1H)-one]
–	10.3 nM	0.8 nM	COC(=O)Nc1ccc(-c2cnc([C@@H]3CC[C@H]4CC(c5c(-n6cnnn6)ccc(Cl)c5F)=CC(=O)N43)[nH]2)nc1 (relative stereo) [Example 322, Methyl (6-(2-((3S,8aS)-7-(3-Chloro-2-fluoro-6-(1H-tetrazol-1-yl)phenyl)-5-oxo-1,2,3,5,8,8a-hexahydroindolizin-3-yl)-1H-imidazol-5-yl)pyridin-3-yl)carbamate]
–	12.9 nM	10.9 nM	C[C@H](Oc1nccc(-c2cnc([C@@H]3CC[C@H]4CC(c5c(-n6cnnn6)ccc(Cl)c5F)=CC(=O)N43)[nH]2)c1F)c1nnco1 (relative stereo) [Example 127, (3S*,8aS*)-3-(5-(2-((S*)-1-(1,3,4-oxadiazol-2-yl)ethoxy)-3-fluoropyridin-4-yl)-1H-imidazol-2-yl)-7-(3-chloro-2-fluoro-6-(1H-tetrazol-1-yl)phenyl)-2,3,8,8a-tetrahydroindolizin-5(1H)-one]
